Like-named read-outs stand apart in the source and are kept apart here.
Key:
[1] = system: alkaline phosphatase activity in T47D cells; experiment: T47D Cell Alkaline Phosphatase Assay; assay type: cell-based, human; conditions: antagonist mode, in the presence of 1 nM progesterone, read-out: Example 18A 'T47D Cell Alkaline Phosphatase Assay' IC50
Method: A. Effects of Progestins and Antiprogestins on Alkaline Phosphatase Activity in T47D Cells—T47D Cell Alkaline Phosphatase Assay
The purpose of this assay is to identify progestins or antiprogestins by determining a compound's effect on alkaline phosphatase activity in T47D cells. The materials and methods are as follows.
Culture medium: DMEM:F12 (1:1) (GIBCO, BRL) supplemented with 5% (v/v) charcoal stripped fetal bovine serum (not heat-inactivated), 100 U/ml penicillin, 100 ug/ml streptomycin, and 2 mM GlutaMax (GIBCO, BRL).
Alkaline phosphatase assay buffer:
I. 0.1M Tris-HCl, pH 9.8, containing 0.2% Triton X-100
II. 0.1M Tris-HCl, pH 9.8, containing 4 mM p-nitrophenyl phosphate (Sigma).
Frozen T47D cells are thawed in a 37° C. water bath and diluted to 280,000 cells/ml in culture medium. To each well in a 96-well plate (Falcon, Becton Dickinson Labware), 180 μl of diluted cell suspension is added. 20 μl of reference or test compounds diluted in the culture medium is then added to each well. […] The cells are incubated at 37° C. in a 5% CO2/humidified atmosphere for 24 hours. NOTE: For high throughput screening, one concentration of each compound is tested at 0.3 μg/ml. Based on an average molecular weight of 300 g/mol for the compounds in the library, the concentration is approximately 1 μM.
At the end of treatment, the medium is removed from the plate. 50 μl of assay buffer I is added to each well. The plates are shaken in a titer plate shaker for 15 min. Then 150 μl of assay buffer II is added to each well.
Subsequent dose response data for screening hits will be evaluated as described below. Analysis of dose-response data. For reference and test compounds, a dose response curve is generated for dose (X-axis) vs. the rate of enzyme reaction (slope) (Y-axis). Square root-transformed data are used for analysis of variance and nonlinear dose response curve fitting for both agonist and antagonist modes. Huber weighting is used to downweight the effects of outliers. EC50 or IC50 values are calculated from the retransformed values.
Percent (%) of induction for agonists at the tested concentrations. […] The default concentration is in the nM range.

[2] = target: T1, progesterone receptor (PR) (Homo sapiens, UniProt P06401); experiment: Progesterone Receptor Whole Cell Competition Binding Assay Using T47D Cells; conditions: 3H-progesterone 3 nM, read-out: Example 18B 'T47D PR whole cell binding Assay' IC50
T1 construct: in live, intact (whole) cells, using the human breast carcinoma T47D cell line; endogenous in cells; host or cells: T47D human breast carcinoma cells (live, intact)
T1 sequence (P06401 1-933): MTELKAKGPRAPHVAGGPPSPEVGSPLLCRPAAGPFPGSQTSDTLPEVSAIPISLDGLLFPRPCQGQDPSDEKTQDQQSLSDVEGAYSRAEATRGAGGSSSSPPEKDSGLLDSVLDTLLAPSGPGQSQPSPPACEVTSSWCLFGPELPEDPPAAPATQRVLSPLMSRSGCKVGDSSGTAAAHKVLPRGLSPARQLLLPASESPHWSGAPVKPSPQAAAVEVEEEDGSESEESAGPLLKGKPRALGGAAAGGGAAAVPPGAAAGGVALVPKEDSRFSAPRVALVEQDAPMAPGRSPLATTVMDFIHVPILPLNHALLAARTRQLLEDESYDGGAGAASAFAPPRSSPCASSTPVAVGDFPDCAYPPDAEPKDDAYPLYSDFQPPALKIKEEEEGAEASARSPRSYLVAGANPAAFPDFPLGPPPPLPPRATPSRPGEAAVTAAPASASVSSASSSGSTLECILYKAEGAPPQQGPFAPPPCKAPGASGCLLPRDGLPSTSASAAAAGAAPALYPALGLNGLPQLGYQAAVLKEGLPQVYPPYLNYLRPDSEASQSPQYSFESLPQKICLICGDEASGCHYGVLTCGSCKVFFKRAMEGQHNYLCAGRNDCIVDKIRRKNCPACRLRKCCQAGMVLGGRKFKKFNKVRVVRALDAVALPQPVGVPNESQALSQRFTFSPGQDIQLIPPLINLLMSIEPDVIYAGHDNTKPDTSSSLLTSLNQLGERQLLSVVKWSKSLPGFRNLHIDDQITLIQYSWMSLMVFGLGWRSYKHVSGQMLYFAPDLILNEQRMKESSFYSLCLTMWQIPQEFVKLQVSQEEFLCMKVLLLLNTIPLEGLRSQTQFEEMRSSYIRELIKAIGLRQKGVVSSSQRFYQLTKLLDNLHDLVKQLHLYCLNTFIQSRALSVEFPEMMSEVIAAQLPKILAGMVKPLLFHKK
Method: 1. Culture medium: 5% RC: phenol red free DMEM:F12 (1:1) (GIBCO, BRL) supplemented with 5% (v/v) charcoal stripped fetal bovine serum (not heat-inactivated), 100 U/ml penicillin, 100 ug/ml streptomycin, and 2 mM GlutaMax (GIBCO, BRL).
2. T47D cell culture: T47D cells are maintained in 10% RC media at 37° C. in a 5% CO2/humidified atmosphere and need to be split twice weekly for proper response. Cells are plated in 10% RC the day before binding assay at 50,000 cells per well in the white, clear bottom plates purchased through VWR or Perkin Elmer.
Cells plated the day prior to the assay in white clear bottom plates are used. A master compound plate is set up containing control and test compounds at 20× final desired concentration for the competition binding. A typical dose range of 20× concentrations are (in nM); 200,000; 20,000; 6000; 2000; 600; 200; 20; and 2. Final concentrations are then (in nM); 10,000; 1000; 300; 100; 30; 10; 1; 0.1.
Media on cells is replaced with 180 μl of 5% RC. […] Compounds are incubated for 3 hrs at 37° C. […] Following incubation, media is carefully removed and cells are washed 3× with 200 μl 5% RC each wash. 50 μl of liquid scintillation cocktail is added and the plates are shaken vigorously for a minimum of 15 minutes.
Square root-transformed data are used for analysis of variance and calculation of IC50 SAS software (SAS Institute, Inc.) is used for all the statistical analysis.

[3] = system: alkaline phosphatase activity in T47D cells; experiment: T47D Cell Alkaline Phosphatase Assay; assay type: cell-based; conditions: Homo sapiens, read-out: Example 18A 'T47D Cell Alkaline Phosphatase Assay' Inhibition (%)

SMILES	IC50 ([1]; Homo sapiens, T47D, 24 h)	IC50 [2]	melting point	further results
CCC(C)c1c(OC)ccc2c1oc1ccc(C#N)cc12 (single isomer, unassigned; (+)) [Example 16, (+)-6-sec-butyl-7-methoxydibenzo[b,d]furan-2-carbonitrile]	–	–	–	IC50 [1]: 13 nM
CCC(C)c1c(OC)ccc2c1oc1ccc(C#N)cc12 (single isomer, unassigned; (-)) [Example 17, (−)-6-sec-butyl-7-methoxydibenzo[b,d]furan-2-carbonitrile]	–	–	–	IC50 [1]: 30 nM
COc1ccc2c(c1)oc1ccc(C#N)cc12 [Example 1, 7-methoxydibenzo[b,d]furan-2-carbonitrile]	259 nM	–	–	–
N#Cc1ccc2oc3cc(O)ccc3c2c1 [Example 2, 7-hydroxydibenzo[b,d]furan-2-carbonitrile]	534 nM	–	270 to 271 °C	–
N#Cc1ccc2oc3c(Br)c(O)c(F)cc3c2c1 [Example 3, 6-bromo-8-fluoro-7-hydroxydibenzo[b,d]furan-2-carbonitrile]	–	–	270 °C (dec.)	–
Cc1ccccc1-c1c(O)c(F)cc2c1oc1ccc(C#N)cc12 [Example 4, 8-fluoro-7-hydroxy-6-(2-methylphenyl)dibenzo[b,d]furan-2-carbonitrile]	–	–	–	inhibition at 3 µM [3]: 50%
N#Cc1ccc2oc3cc(O)c(F)cc3c2c1 [Example 6, 8-fluoro-7-hydroxydibenzo[b,d]furan-2-carbonitrile]	–	–	270 °C (dec.)	–
COc1cc2oc3ccc(C#N)cc3c2cc1F [Example 7, 8-fluoro-7-methoxydibenzo[b,d]furan-2-carbonitrile]	–	–	206 to 208 °C	inhibition at 3 µM [3]: 65%
N#Cc1ccc2oc3c(-c4ccccc4F)c(O)c(F)cc3c2c1 [Example 8, 8-fluoro-6-(2-fluorophenyl)-7-hydroxydibenzo[b,d]furan-2-carbonitrile]	–	–	–	inhibition at 3 µM [3]: 40%
COc1ccc2c(oc3ccc(C#N)cc32)c1C(C)C [Example 9, 6-isopropyl-7-methoxydibenzo[b,d]furan-2-carbonitrile]	48 nM	–	–	–

The next lines start with results.

IC50 ([1]; Homo sapiens, T47D, 24 h)	IC50 [2]	melting point	SMILES	further results
18.5 nM	59.7 nM	80 to 82 °C	CCC(C)c1c(OC)ccc2c1oc1ccc(C#N)cc12 (racemic) [Example 12, 6-sec-butyl-7-methoxydibenzo[b,d]furan-2-carbonitrile]	–
19 nM	36.7 nM	206 to 207 °C	CCC(C)c1c(O)ccc2c1oc1ccc(C#N)cc12 (racemic) [Example 13, 6-sec-butyl-7-hydroxydibenzo[b,d]furan-2-carbonitrile]	–
–	41.5 nM	–	CCC(C)c1c(O)ccc2c1oc1ccc(C#N)cc12 (single isomer, unassigned; (+)) [Example 14, (+)-6-sec-butyl-7-hydroxydibenzo[b,d]furan-2-carbonitrile]	IC50 [1]: 22 nM
–	81.2 nM	–	CCC(C)c1c(O)ccc2c1oc1ccc(C#N)cc12 (single isomer, unassigned; (-)) [Example 15, (−)-6-sec-butyl-7-hydroxydibenzo[b,d]furan-2-carbonitrile]	IC50 [1]: 148 nM
28 nM	21.1 nM	180 to 182 °C	CC(C)c1c(O)ccc2c1oc1ccc(C#N)cc12 [Example 10, 7-hydroxy-6-isopropyldibenzo[b,d]furan-2-carbonitrile]	–
50 nM	–	–	N#Cc1ccc2oc3c(C4CCCC4)c(O)ccc3c2c1 [Example 11, 6-cyclopentyl-7-hydroxydibenzo[b,d]furan-2-carbonitrile]	–

— US20070093548A1 (Wyeth, priority 2005, published 2007)
